biological target: T1, Porcine gastric H+/K+-ATPase (Sus scrofa, UniProt P19156); experiment: Ion-leaky porcine gastric H+/K+-ATPase inhibition; format: biochemical; details: ion-leaky vesicles, 5 mM KCl, pH 6.4, 37° C., 30 minutes
T1 construct: The gastric vesicles were collected from interface on 0.25 M sucrose layer containing 7% Ficoll; from tissue; host or cells: mucous membrane of fresh porcine stomachs (gastric vesicles)
Protocol: The porcine gastric vesicles for Porcine gastric H^+/K^+-ATPase inhibition assays were prepared from mucous membrane in fresh porcine stomachs by homogenization with a tight-fitted polytetrafluoroethylene (Teflone®) homogenizer in 0.25 M sucrose at 4° C. The crude pellet was removed with centrifugation at 20,000 g for 30 min. Then supernatant was centrifuged at 100,000 g for 30 min. The resulting pellet was re-suspended in 0.25 M sucrose, and then subjected to density gradient centrifugation at 132,000 g for 90 min. The gastric vesicles were collected from interface on 0.25 M sucrose layer containing 7% Ficoll™ PM400(Amersham Biosciences). This procedure was performed in a cold room.
Ion-leaky porcine gastric H^+/K^+-ATPase-inhibition was measured according to the modified method described in Biochemical Pharmacology, 1988, 37, 2231-2236.
The isolated vesicles were lyophilized, and then kept in deep-freezer until use. For enzyme assay, lyophilized vesicles were reconstituted with 3 mM MgSO4 containing 40 mM Bis-tris (pH 6.4 at 37° C.).
Enzyme reaction was performed incubating 5 mM KCl, 3 mM Na2ATP, 3 mM MgSO4 and 1.0 μg of reconstituted vesicles for 30 minutes at 37° C. in a final 60 μl of reaction mixture (40 mM Bis-tris, pH 6.4) with or without the test compound. Enzyme reaction was stopped by adding 10% sodium dodecyl sulphate (SDS). Released inorganic phosphate from ATP was detected by incubation with mixture of 1 part of 35 mM ammonium molybdate tetrahydrate in 15 mM Zinc acetate hydrate and 4 parts of 10% ascorbic acid (pH 5.0), resulting in phosphomolybdate, which has optical density at 750 nm.

T1 sequence (P19156 2-1034 limits assumed): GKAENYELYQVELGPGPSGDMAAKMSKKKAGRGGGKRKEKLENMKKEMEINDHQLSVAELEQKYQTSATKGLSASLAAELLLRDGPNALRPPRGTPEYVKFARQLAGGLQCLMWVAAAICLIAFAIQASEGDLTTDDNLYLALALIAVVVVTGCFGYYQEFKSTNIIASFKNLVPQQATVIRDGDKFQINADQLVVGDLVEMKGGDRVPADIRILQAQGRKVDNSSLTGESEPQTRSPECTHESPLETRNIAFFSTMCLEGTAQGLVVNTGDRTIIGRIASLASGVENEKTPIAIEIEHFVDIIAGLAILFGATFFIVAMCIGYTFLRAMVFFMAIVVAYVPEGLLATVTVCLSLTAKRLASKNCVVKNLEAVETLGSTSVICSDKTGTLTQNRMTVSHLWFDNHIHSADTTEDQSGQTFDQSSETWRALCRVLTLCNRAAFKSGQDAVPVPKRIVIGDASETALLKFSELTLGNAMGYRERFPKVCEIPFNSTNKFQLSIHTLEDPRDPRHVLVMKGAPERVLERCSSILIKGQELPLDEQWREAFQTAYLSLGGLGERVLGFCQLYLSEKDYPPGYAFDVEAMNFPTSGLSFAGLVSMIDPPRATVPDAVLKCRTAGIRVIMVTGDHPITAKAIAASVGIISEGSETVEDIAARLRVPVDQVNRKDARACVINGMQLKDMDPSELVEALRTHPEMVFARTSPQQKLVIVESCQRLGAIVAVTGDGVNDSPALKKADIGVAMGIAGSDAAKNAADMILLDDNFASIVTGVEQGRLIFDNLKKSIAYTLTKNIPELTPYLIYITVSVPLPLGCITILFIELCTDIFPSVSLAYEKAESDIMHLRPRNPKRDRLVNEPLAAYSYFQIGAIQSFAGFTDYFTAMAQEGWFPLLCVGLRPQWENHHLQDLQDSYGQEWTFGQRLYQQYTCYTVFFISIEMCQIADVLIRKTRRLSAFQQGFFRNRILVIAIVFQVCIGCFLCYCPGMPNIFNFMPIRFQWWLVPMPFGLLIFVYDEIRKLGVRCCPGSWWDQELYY
T1 sequence (P18434 whole entry partner): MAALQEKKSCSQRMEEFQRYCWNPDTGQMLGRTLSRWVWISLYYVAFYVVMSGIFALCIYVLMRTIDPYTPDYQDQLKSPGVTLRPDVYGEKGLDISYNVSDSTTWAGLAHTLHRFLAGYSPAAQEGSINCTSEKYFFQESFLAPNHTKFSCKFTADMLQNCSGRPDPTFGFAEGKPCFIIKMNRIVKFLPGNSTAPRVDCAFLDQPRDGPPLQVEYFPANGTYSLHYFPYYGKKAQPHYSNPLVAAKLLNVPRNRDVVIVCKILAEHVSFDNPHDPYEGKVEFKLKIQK

Q: For `Cc1cccc2c1C(Nc1cc(C(=O)N(C)C)cn3c(C)c(C)nc13)CCO2` (racemic) [Example 17-1, N,N,2,3-Tetramethyl-8-[(5-methyl-3,4-dihydro-2H-chromen-4-yl)amino]imidazo[1,2-a]pyridine-6-carboxamide], which IC50 is on record?
A: Its IC50 is 64 nM.

Q: How did the IC50 turn out when `Cc1nc2c(NC3CCOc4cc(F)cc(F)c43)cc(C(=O)N(C)C)cn2c1C` (single isomer, unassigned) [Example 8-3, 8-[(5,7-Difluoro-3,4-dihydro-2H-chromen-4-yl)amino]-N,N,2,3-tetramethylimidazo[1,2-a]pyridine-6-carboxamide] was run?
A: The IC50 was 49 nM.

Q: `Cc1cccc2c1C(Nc1cc(C(=O)N(C)C)cn3c(C)c(C)nc13)CCO2` (single isomer, unassigned) [Example 17-3, N,N,2,3-Tetramethyl-8-[(5-methyl-3,4-dihydro-2H-chromen-4-yl)amino]imidazo[1,2-a]pyridine-6-carboxamide] was tested. Which IC50 did it give?
A: The IC50 was 91 nM.

Q: How did the IC50 turn out when `Cc1nc2c(NC3CCOc4cccc(Cl)c43)cc(C(=O)N(C)CCO)cn2c1C` (single isomer, unassigned) [Example 19-3, 8-[(5-Chloro-3,4-dihydro-2H-chromen-4-yl)amino]-N-(2-hydroxyethyl)-N,2,3-trimethylimidazo[1,2-a]pyridine-6-carboxamide] was run?
A: The IC50 was 500 nM.

Q: With `Cc1nc2c(NC3CCOc4c(F)cccc43)cc(C(=O)N(C)C)cn2c1C` (single isomer, unassigned) [Example 14-3, 8-[(8-Fluoro-3,4-dihydro-2H-chromen-4-yl)amino]-N,N,2,3-tetramethylimidazo[1,2-a]pyridine-6-carboxamide] as the compound, how does the IC50 read?
A: Its IC50 is 170 nM.

Q: `Cc1ccc2c(c1)OCCC2Nc1cc(C(=O)N(C)CCO)cn2c(C)c(C)nc12` (single isomer, unassigned) [Example 16-3, N-(2-Hydroxyethyl)-N,2,3-trimethyl-8-[(7-methyl-3,4-dihydro-2H-chromen-4-yl)amino]imidazo[1,2-a]pyridine-6-carboxamide] was tested. Which IC50 did it give?
A: Its IC50 is 180 nM.

Q: Which IC50 does the source give for `Cc1nc2c(NC3CCOc4ccccc43)cc(C(=O)N(C)CCO)cn2c1C` (single isomer, unassigned; (-)) [Example 2-2, (−)-8-(3,4-Dihydro-2H-chromen-4-ylamino)-N-(2-hydroxyethyl)-N,2,3-trimethylimidazo[1.2-a]pyridine-6-carboxamide] here?
A: Its IC50 is 81.1 nM.

Q: For `Cc1nc2c(NC3CCOc4cccc(Cl)c43)cc(C(=O)N(C)CCO)cn2c1C` (single isomer, unassigned) [Example 19-2, 8-[(5-Chloro-3,4-dihydro-2H-chromen-4-yl)amino]-N-(2-hydroxyethyl)-N,2,3-trimethylimidazo[1,2-a]pyridine-6-carboxamide], which IC50 is on record?
A: Its IC50 is 600 nM.

Q: `Cc1nc2c(NC3CCOc4cccc(F)c43)cc(C(=O)N(C)CCO)cn2c1C` (single isomer, unassigned) [Example 11-3, 8-[(5-Fluoro-3,4-dihydro-2H-chromen-4-yl)amino]-N-(2-hydroxyethyl)-N,2,3-trimethylimidazo[1,2-a]pyridine-6-carboxamide] was tested. Which IC50 did it give?
A: The IC50 was 101 nM.

Q: `Cc1ccc2c(c1)OCCC2Nc1cc(C(=O)N(C)CCO)cn2c(C)c(C)nc12` (racemic) [Example 16-1, N-(2-Hydroxyethyl)-N,2,3-trimethyl-8-[(7-methyl-3,4-dihydro-2H-chromen-4-yl)amino]imidazo[1,2-a]pyridine-6-carboxamide] was tested. Which IC50 did it give?
A: Its IC50 is 331 nM.

Q: How did the IC50 turn out when `Cc1nc2c(NC3CCOc4cccc(F)c43)cc(C(=O)N(C)C)cn2c1C` (single isomer, unassigned) [Example 10-3, 8-[(5-Fluoro-3,4-dihydro-2H-chromen-4-yl)amino]-N,N,2,3-tetramethylimidazo[1,2-a]pyridine-6-carboxamide] was run?
A: The IC50 was 91 nM.

Q: How did the IC50 turn out when `Cc1nc2c(NC3CCOc4cccc(Cl)c43)cc(C(=O)N(C)CCO)cn2c1C` (racemic) [Example 19-1, 8-[(5-Chloro-3,4-dihydro-2H-chromen-4-yl)amino]-N-(2-hydroxyethyl)-N,2,3-trimethylimidazo[1,2-a]pyridine-6-carboxamide] was run?
A: Its IC50 is 390 nM.

Q: Which IC50 does the source give for `Cc1nc2c(NC3CCOc4cccc(F)c43)cc(C(=O)N(C)C)cn2c1C` (single isomer, unassigned) [Example 10-2, 8-[(5-Fluoro-3,4-dihydro-2H-chromen-4-yl)amino]-N,N,2,3-tetramethylimidazo[1,2-a]pyridine-6-carboxamide] here?
A: The IC50 was 51.1 nM.

Q: Which IC50 does the source give for `Cc1nc2c(NC3CCOc4ccc(F)cc43)cc(C(=O)N(C)CCO)cn2c1C` (racemic) [Example 13-1, 8-[(6-Fluoro-3,4-dihydro-2H-chromen-4-yl)amino]-N-(2-hydroxyethyl)-N,2,3-trimethylimidazol[1,2-a]pyridine-6-carboxamide] here?
A: Its IC50 is 250 nM.

Q: Which IC50 does the source give for `Cc1cccc2c1C(Nc1cc(C(=O)N(C)CCO)cn3c(C)c(C)nc13)CCO2` (racemic) [Example 5-1, N-(2-Hydroxyethyl)-N,2,3-trimethyl-8-[(5-methyl-3,4-dihydro-2H-chromen-4-yl)amino]imidazo[1,2-a]pyridine-6-carboxamide] here?
A: The IC50 was 94.7 nM.

Q: For `Cc1nc2c(NC3CCOc4c(F)cccc43)cc(C(=O)N(C)C)cn2c1C` (racemic) [Example 14-1, 8-[(8-Fluoro-3,4-dihydro-2H-chromen-4-yl)amino]-N,N,2,3-tetramethylimidazo[1,2-a]pyridine-6-carboxamide], which IC50 is on record?
A: Its IC50 is 294 nM.

Q: Which IC50 does the source give for `Cc1cccc2c1C(Nc1cc(C(=O)N(C)C)cn3c(C)c(C)nc13)CCO2` (single isomer, unassigned) [Example 17-2, N,N,2,3-Tetramethyl-8-[(5-methyl-3,4-dihydro-2H-chromen-4-yl)amino]imidazo[1,2-a]pyridine-6-carboxamide] here?
A: Its IC50 is 43 nM.

Q: For `Cc1nc2c(NC3CCOc4cc(F)ccc43)cc(C(=O)N(C)C)cn2c1C` (racemic) [Example 6-1, 8-[(7-Fluoro-3,4,dihydro-2H-chromen-4-yl)amino]-N,N,2,3-tetramethylimidazo[1,2-a]pyridine-6-carboxamide], which IC50 is on record?
A: Its IC50 is 13.9 nM.

Q: With `Cc1nc2c(NC3COCc4ccccc43)cc(C(=O)N(C)CCO)cn2c1C` (racemic) [Example 4-1, 8-(3,4-Dihydro-1H-isochromen-4-ylamino)-N-(2-hydroxyethyl)-N,2,3-trimethylimidazo[1,2-a]pyridine-6-carboxamide] as the compound, how does the IC50 read?
A: Its IC50 is 87.1 nM.

Q: For `Cc1nc2c(NC3CCOc4cc(F)cc(F)c43)cc(C(=O)N(C)CCO)cn2c1C` (single isomer, unassigned) [Example 9-3, 8-[(5,7-Difluoro-3,4-dihydro-2H-chromen-4-yl)amino]-N-(2-hydroxyethyl)-N,2,3-trimethylimidazo[1,2-a]pyridine-6-carboxamide], which IC50 is on record?
A: The IC50 was 53.2 nM.

Q: Which IC50 does the source give for `Cc1nc2c(NC3CCOc4ccccc43)cc(C(=O)N(C)C)cn2c1C` (single isomer, unassigned; (-)) [Example 1-2, (−)-8-(3,4-Dihydro-2H-chromen-4-ylamino)-N,N,2,3-tetramethylimidazo[1,2-a]pyridine-6-carboxamide] here?
A: The IC50 was 61.9 nM.

Q: How did the IC50 turn out when `Cc1ccc2c(c1)OCCC2Nc1cc(C(=O)N(C)CCO)cn2c(C)c(C)nc12` (single isomer, unassigned) [Example 16-2, N-(2-Hydroxyethyl)-N,2,3-trimethyl-8-[(7-methyl-3,4-dihydro-2H-chromen-4-yl)amino]imidazo[1,2-a]pyridine-6-carboxamide] was run?
A: Its IC50 is 100 nM.

Q: With `Cc1nc2c(NC3CCOc4cc(F)ccc43)cc(C(=O)N(C)CCO)cn2c1C` (single isomer, unassigned) [Example 7-3, 8-[(7-Fluoro-3,4-dihydro-2H-chromen-4-yl)amino]-N-(2-hydroxyethyl)-N,2,3-trimethylimidazol[1,2-a]pyridlne-6-carboxamide] as the compound, how does the IC50 read?
A: The IC50 was 55.9 nM.

Q: How did the IC50 turn out when `Cc1nc2c(NC3CCOc4cccc(F)c43)cc(C(=O)N(C)CCO)cn2c1C` (single isomer, unassigned) [Example 11-2, 8-[(5-Fluoro-3,4-dihydro-2H-chromen-4-yl)amino]-N-(2-hydroxyethyl)-N,2,3-trimethylimidazo[1,2-a]pyridine-6-carboxamide] was run?
A: The IC50 was 53.8 nM.

Q: How did the IC50 turn out when `Cc1nc2c(NC3CCOc4ccccc43)cc(C(=O)N(C)CCO)cn2c1C` (single isomer, unassigned; (+)) [Example 2-3, (+)-8-(3,4-Dihydro-2H-chromen-4-ylamino)-N-(2-hydroxyethyl)-N,2,3-trimethylimidazo[1,2-a]pyridine-6-carboxamide] was run?
A: Its IC50 is 64 nM.

Q: For `Cc1nc2c(NC3CCOc4ccc(F)cc43)cc(C(=O)N(C)C)cn2c1C` (racemic) [Example 12-1, 8-[(6-Fluoro-3,4-dihydro-2H-chromen-4-yl)amino]-N,N,2,3-tetramethylimidazo[1,2-a]pyridine-6-carboxamide], which IC50 is on record?
A: Its IC50 is 20.8 nM.

Q: With `Cc1nc2c(NC3CCOc4ccc(F)cc43)cc(C(=O)N(C)C)cn2c1C` (single isomer, unassigned) [Example 12-3, 8-[(6-Fluoro-3,4-dihydro-2H-chromen-4-yl)amino]-N,N,2,3-tetramethylimidazo[1,2-a]pyridine-6-carboxamide] as the compound, how does the IC50 read?
A: Its IC50 is 81.1 nM.
